Test results from paper PMC10046037, “GABRG2 Variants Associated with Febrile Seizures” (Biomolecules, 2023).

Columns and labels:
[1] = molecular target: T1, α1β3γ2 GABAA receptor, γ2R408K variant (Homo sapiens, UniProt P14867+P18507+P28472, R408K); test: Automated patch clamp of GABA-elicited currents (SyncroPatch 384PE), γ2R408K; type: cell-based; conditions: 1 mM GABA for 5 ms, HEK293T, mean
T1 construct: expressed in transfected cells; host or cells: HEK293T
T1 sequence (P14867 28-456): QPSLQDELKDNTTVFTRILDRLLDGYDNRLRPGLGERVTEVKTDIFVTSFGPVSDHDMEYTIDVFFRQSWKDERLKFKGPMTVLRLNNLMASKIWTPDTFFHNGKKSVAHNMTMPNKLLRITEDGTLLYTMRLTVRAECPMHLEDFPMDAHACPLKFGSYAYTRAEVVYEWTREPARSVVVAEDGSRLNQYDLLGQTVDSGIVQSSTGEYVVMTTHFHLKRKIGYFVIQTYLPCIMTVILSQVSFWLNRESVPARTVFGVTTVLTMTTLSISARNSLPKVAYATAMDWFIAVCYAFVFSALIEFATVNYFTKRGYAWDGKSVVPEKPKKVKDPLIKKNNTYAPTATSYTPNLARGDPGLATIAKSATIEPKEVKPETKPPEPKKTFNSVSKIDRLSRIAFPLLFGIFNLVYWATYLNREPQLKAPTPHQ
T1 sequence (P28472 26-473 isoform P28472-2): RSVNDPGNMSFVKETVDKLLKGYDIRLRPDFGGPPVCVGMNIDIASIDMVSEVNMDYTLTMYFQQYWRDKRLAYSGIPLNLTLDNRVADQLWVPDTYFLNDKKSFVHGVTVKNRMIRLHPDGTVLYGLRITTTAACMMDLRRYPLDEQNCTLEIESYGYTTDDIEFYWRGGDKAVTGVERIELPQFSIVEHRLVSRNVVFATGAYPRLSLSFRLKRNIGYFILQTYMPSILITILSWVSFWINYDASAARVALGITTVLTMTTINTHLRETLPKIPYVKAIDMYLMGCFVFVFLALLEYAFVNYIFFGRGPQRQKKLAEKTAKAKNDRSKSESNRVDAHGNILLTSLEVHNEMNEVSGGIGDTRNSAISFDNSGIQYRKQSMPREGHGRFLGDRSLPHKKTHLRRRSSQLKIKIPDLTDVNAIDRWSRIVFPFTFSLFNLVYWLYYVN
T1 sequence (P18507 40-475 R408K): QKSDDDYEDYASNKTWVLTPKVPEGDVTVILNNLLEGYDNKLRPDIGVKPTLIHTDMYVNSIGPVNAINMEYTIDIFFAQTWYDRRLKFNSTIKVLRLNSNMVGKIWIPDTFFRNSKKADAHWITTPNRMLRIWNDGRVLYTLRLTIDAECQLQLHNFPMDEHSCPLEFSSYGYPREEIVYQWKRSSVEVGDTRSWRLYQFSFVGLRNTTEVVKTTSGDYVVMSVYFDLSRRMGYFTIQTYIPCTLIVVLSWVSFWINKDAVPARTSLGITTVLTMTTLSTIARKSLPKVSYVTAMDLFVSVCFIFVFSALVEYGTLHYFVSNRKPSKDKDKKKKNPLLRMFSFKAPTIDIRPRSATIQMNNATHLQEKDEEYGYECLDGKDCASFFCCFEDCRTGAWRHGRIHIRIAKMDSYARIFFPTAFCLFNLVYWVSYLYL
Procedure: (§1) The coding sequences of human α1 (GABRA1, NM_000806), β3 (GABRB3, NM_021912), and γ2 (GABRG2, NM_198904.2) GABAAR subunits were subcloned into the pcDNA3.1 expression vectors (Invitrogen, Waltham, MA, USA).
(§2) HEK293T cells (ATCC, CRL-11268) were cultured at 37 °C in a humidified 5% CO2 incubator and maintained in Dulbecco’s modified Eagle’s medium (Invitrogen) supplemented with 10% fetal bovine serum (Life Technologies, Carlsbad, CA, USA), and 100 IU/mL of penicillin/streptomycin (Life Technologies). For the expression experiments, 4 × 10^5 cells were transfected using polyethylenimine (PEI) reagent (40 kD, Polysciences, Warrington, PA, USA) at a DNA: to transfection reagent ratio of 1:2.5 and harvested 36 h after transfection. To express WT and variant α1β3γ2 receptors, a total of 3 µg of α1, β3, and γ2 (WT or mutant) subunit cDNAs were transfected at a ratio of 1:1:1 into 60 mm culture dishes. For the mock-transfected condition, an empty pcDNA3.1 vector was added for a final cDNA transfection amount of 3 μg. For the electrophysiology experiments, 2.5 × 10^5 cells were plated in 100 mm culture dishes and transfected after 24 h with 3 μg of cDNA of each α1, β3, γ2 (wild-type or mutant) subunit, using X-tremeGENE HP DNA transfection Reagent (Roche Diagnostics, Basel, Switzerland), following the manufacturer’s protocol. Recordings were obtained forty-eight hours after transfection.
Whole-cell patch clamp recordings were conducted according to the manufacturer’s standard procedure for the SyncroPatch 384 [31]. […] Using PatchControl 384, electrophysiological parameters, such as seal resistance, capacitance, and series resistance, were determined for each well after the application of a test pulse, and subsequently monitored over time. […] The currents were normalized to the maximal response of each well, and the concentration–response curves were calculated from single-point additions. The EC50 values for each variant or wild-type receptor were calculated across multiple wells for each experimental condition.

[2] = molecular target: T2, α1β3γ2 GABAA receptor, wild-type (WT) γ2 subunit (Homo sapiens, UniProt P14867+P28472); test: Automated patch clamp of GABA-elicited currents (SyncroPatch 384PE), WT receptor; type: cell-based; conditions: mean
T2 construct: expressed in transfected cells; host or cells: HEK293T
T2 sequence (P18507 40-475 partner, one chain of several): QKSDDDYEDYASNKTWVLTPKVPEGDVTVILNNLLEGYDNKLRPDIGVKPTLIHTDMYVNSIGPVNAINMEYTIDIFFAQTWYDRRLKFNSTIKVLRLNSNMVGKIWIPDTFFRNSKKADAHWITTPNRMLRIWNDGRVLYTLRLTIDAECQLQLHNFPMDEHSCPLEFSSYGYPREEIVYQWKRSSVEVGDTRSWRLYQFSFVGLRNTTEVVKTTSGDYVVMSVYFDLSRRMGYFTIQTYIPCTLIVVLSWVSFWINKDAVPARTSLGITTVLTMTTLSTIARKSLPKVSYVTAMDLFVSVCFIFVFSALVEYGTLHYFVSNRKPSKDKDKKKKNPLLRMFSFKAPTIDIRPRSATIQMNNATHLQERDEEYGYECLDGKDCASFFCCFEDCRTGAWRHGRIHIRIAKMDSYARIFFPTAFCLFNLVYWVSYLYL
Procedure: as §1, §2
Whole-cell patch clamp recordings were conducted according to the manufacturer’s standard procedure for the SyncroPatch 384 [31]. Whole-cell voltage-clamp recordings were performed at room temperature on HEK293T cells 48 h after transfection with GABAAR subunits, using the SyncroPatch 384PE (Nanion Technologies, Munich, Germany). Cells, at a concentration of 400,000 cells/mL, were harvested in suspension in external solution containing 140 mM of NaCl, 2 mM of CaCl2, 4 mM of KCl, 1 mM of MgCl2, 5 mM of glucose, and 10 mM of HEPES (pH 7.4 with NaOH, 298 mOsm). The cells were loaded in a multi-hole (4 holes per well) 384-well Nanion patch clamp (NPC) chip with a thick borosilicate glass bottom and an average resistance pore size of […]. Built-in electrophysiological protocols were used, and the data were digitized using PatchControl 384 (Nanion Technologies) application. Using PatchControl 384, electrophysiological parameters, such as seal resistance, capacitance, and series resistance, were determined for each well after the application of a test pulse, and subsequently monitored over time. […] The currents were normalized to the maximal response of each well, and the concentration–response curves were calculated from single-point additions. The EC50 values for each variant or wild-type receptor were calculated across multiple wells for each experimental condition.

Deactivation ([1]; -80 mV): 165.4 ms
IMAX (maximal GABA-evoked peak current) [1]: 0.22 nA
Rise Time ([1]; 10–90% rise time): 40.23 ms
Deactivation ([2]; 1 mM GABA for 5 ms, HEK293T, -80 mV): 199.9 ms
IMAX (maximal GABA-evoked peak current) ([2]; 1 mM GABA for 5 ms, HEK293T): 2.00 nA
IMAX variant/IMAX WT ([2]; 1 mM GABA): 100.00%
Rise Time ([2]; 10–90% rise time, 1 mM GABA for 5 ms, HEK293T): 13.67 ms
SMILES: NCCCC(=O)O [GABA, γ-aminobutyric acid]
